The source of these data is paper PMC10778626, “Efficacy of Novel Quaternary Ammonium and Phosphonium Salts Differing in Cation Type and Alkyl Chain Length against Antibiotic-Resistant Staphylococcus aureus” (International Journal of Molecular Sciences, 2023).

≈ marks a conversion by molar mass, not a printed value. Read-outs that look alike come from different tables or passages of the source.

On the set-up of data set [1]: method as in earlier work. The following applies: standard mixture for the calibration line; cited from earlier work.
Data set [2] relates to S. aureus SA1199B. Kind of data set: MIC/MBC by broth microdilution, S. aureus SA1199B. The data set is classed as cell-based. Particulars: Staphylococcus aureus. The procedure: (§1) S. aureus CECT 976, obtained from the Spanish Type Culture Collection, was used as the standard susceptibility testing control strain. This strain has been previously employed in diverse studies to validate the antimicrobial effects of novel molecules. Additional antibiotic-resistant strains, S. aureus XU212, SA1199B, and RN4220, generously provided by S. Gibbons (University College London, London, UK) were tested. […] The SA1199B strain is characterized by its resistance to fluoroquinolones due to the overexpression of the NorA efflux pump and its ciprofloxacin resistance.
(§2) The minimum inhibitory concentration (MIC) and minimum bactericidal concentration (MBC) values of all QHSs were determined by the broth microdilution method, according to the approved M7-A7 (aerobes) standards of the Clinical and Laboratory Standards Institute (CLSI) guidelines. Overnight cell cultures of S. aureus, in the exponential phase of growth, were adjusted to an optical density (OD) of 0.132 ± 0.02 (λ = 600 nm). Then, a volume of 180 µL of the cell suspension was added to sterile, flat, clear-bottomed polystyrene (PS) 96-well microtiter plates (VWR—Radnor, PA, USA), already containing 20 µL of each QHS under study at concentrations ranging from 0.0625 to 64 µg/mL. In the end, the volume of each compound never exceeded 10% (v/v) of the well volume. Microtiter plates were then incubated for 24 h at 37 °C under agitation (150 rpm; INCU-Line IL 150R incubator). Absorbance measurements were performed at the beginning (t = 0 h) and end (t = 24 h) of the incubation period using a microtiter plate absorbance reader (BMG LABTECH FLUOstar Omega). Bacterial suspensions with DMSO and without QHSs were used as negative controls. […] All tests were performed with six replicates and a minimum of three independent repeats.
(§3) Plates were incubated at 37 °C for 24 h, and growth was visually inspected. The MBC was determined as the lowest concentration of compound in which the total inhibition of growth on solid medium was observed (no colony forming units (CFUs) were detected). All tests were performed in triplicate, and with a minimum of three independent repeats.
In general terms: Broth dilution looks for growth in wells or tubes with falling amounts of substance.

For a further data set, the system named is HepG2 cells. Kind of data set: Cytotoxicity by neutral red (NR) uptake. The data set is classed as cell-based, human. Particulars: HepG2, 24 h. The procedure: The evaluation of the cytotoxicity effects of QHSs was performed using hepatocellular carcinoma (HepG2) cells. […] The cells used for all experiments were taken between the 9th and 13th passages, to avoid phenotypic changes.
The cytotoxicity profile of the compounds under study was evaluated in HepG2 cells (2.5 × 10^5 cells/mL) seeded in 96-well plates. […] Control experiments were performed for viability endpoints by adding the vehicle (medium with 0.1% DMSO) instead of the compound solution.
In the NR uptake assay, following a 24 h incubation period with the test compounds, the cell culture medium was aspirated, and fresh medium containing 150 µL of the dye (at a concentration of […]) was added to the cells. […] After incubation, the cell culture medium was discarded, and a mixture of absolute ethanol and distilled water (1:1) containing 5% acetic acid was added to extract the dye accumulated within the lysosomes of viable cells. The absorbance at 540 nm was measured using a microplate reader (Synergy HTX Multi-Mode Reader—BioTek, Winooski, VT, USA).
For all assays, results are expressed as a percentage of the control (nontreated cells), taken as 100%.

Data set [3] has as its system S. aureus CECT 976. Kind of data set: Quantitative suspension test, dose-response against planktonic bacteria. It is filed as cell-based, Staphylococcus aureus. Particulars: S. aureus CECT 976; 30 min exposure. The procedure:
A quantitative suspension test to explore the dose–response relationships of QHSs by evaluating bactericidal activity was performed. For this method, overnight grown cultures were centrifuged (VWR Mega Star 600R) at 3772× g for 10 min and washed twice with phosphate-buffered saline (PBS; 1.44 g/L of […]—Labkem, Barcelona, Spain; 8 g/L of sodium chloride, 0.2 g/L of potassium chloride, and 0.24 g/L of potassium dihydrogen phosphate—VWR, Leuven, Belgium) at pH 7.4. The collected cells were resuspended in PBS and adjusted to an optical density (OD) of 0.132 ± 0.02 (λ = 600 nm). Afterwards, 100 µL of this cell suspension was aseptically transferred to 800 µL of DW and allowed to stand for 2 min. To this mixture, 100 µL of each QHS solution diluted in DMSO at the desired concentration was added. The dose–response evaluation took place for 30 min at 37 °C. In the case of the negative control (untreated cells), the QHS solution was replaced by an equal volume of DMSO or DW. At the end of the contact time, QHS neutralization was performed through the dilution-neutralization method using a universal neutralizer (1 g/L L-histidine (Merck—Tokyo, Japan), 3 g/L lecithin (Alfa Aesar—Karlsruhe, Germany), 5 g/L sodium thiosulphate (Labkem—Barcelona, Spain), 30 g/L saponin (VWR Chemicals—Leuven, Belgium), and 30 g/L polysorbate 80 (VWR Chemicals—Le Havre, France) in 0.0025 M phosphate buffer). For neutralization, the test blend (100 µL) was added to 800 µL sterile aqueous neutralizing solution and 100 µL of DW. The mixture was gently agitated and allowed to stand for 10 min, after which serial dilutions (up to 10^−5) in sterile saline solution (0.85% w/v NaCl) were prepared. Then, 10 µL of each serial dilution was plated into Petri dishes containing PCA by the drop-plating method. The plates were allowed to set, then inverted and placed in an incubator at 37 °C for 24 h. The surviving cells on the QHS neutralized samples were determined by CFU counting on each plate, ensuring the counting of dilution plates that gave between 10 and 100 CFUs. The antibacterial activity was evaluated by quantification of logarithmic reduction (log CFU/mL), according to Equation (2). log CFU/mL reduction = log (X) − log (X0), (2) where X0 and X are the counts of CFU/mL before (untreated control cells) and after quaternary salt exposure, respectively.
The QHS concentrations chosen for conducting the dose–response tests comprise of the MBC, which causes the complete reduction of planktonic cells, as well as lower concentrations. Specifically, compound 1e was evaluated at concentrations of 0.25, 0.5, 0.75, 1, 2, 4, 8, and 16 µg/mL, compound 7e at concentrations of 1, 2, 3.2, 3.5, 4, 8, and 16 µg/mL, compound 5e at concentrations of 0.5, 1, 1.3, 1.6, 2, 4, and 8 µg/mL, and compound 3e at concentrations of 0.5, 0.75, 1, 1.3, 1.6, 2, 4, and 8 µg/mL. In the case of compounds 2e, 6e, and 4e, concentrations tested were 0.5, 1, 1.6, 2, 4, and 8 µg/mL. All tests were performed in duplicate, and with a minimum of three independent repeats.
The Chick–Watson mathematical model, provided in Equation (3), is considered an adequate approach to validate the kinetics of dose–response data. log X/X0 = − Kdis C^n t (3) where X0 and X are the counts of CFU/mL before and after quaternary salt exposure, respectively; Kdis is a killing rate coefficient ((mL.µg^−1)^n.min^−1); C is the quaternary salt concentration (µg.mL^−1); n is the concentration exponent and t is the exposure time (min). The concentration dependence of killing (n) was determined using a toolbox for linear regression in GraphPad Prism (version 8.4.0, GraphPad Software, La Jolla, CA, USA). The quality of the model was evaluated through the regression coefficient (R^2).

In data set [4] the test system is S. aureus CECT 976. Kind of data set: MIC/MBC by broth microdilution, S. aureus CECT 976. The data set is classed as cell-based. The following applies: Staphylococcus aureus, CECT976, S. aureus CECT 976, broth microdilution. The procedure: as §2
Plates were incubated at 37 °C for 24 h, and growth was visually inspected. […] All tests were performed in triplicate, and with a minimum of three independent repeats.

Another data set deals with S. aureus XU212. Kind of data set: MIC/MBC by broth microdilution, S. aureus XU212. The data set is classed as cell-based. Particulars: Staphylococcus aureus. The procedure:
as §1, §2, §3

Another data set relates to S. aureus RN4220. Kind of data set: MIC/MBC by broth microdilution, S. aureus RN4220. The data set is classed as cell-based. Particulars: Staphylococcus aureus. As for the experimental part: as §1, §2, §3
The subject of data set [5] is S. aureus CECT 976. Also noted: method as in Abreu et al. [44]. The following applies: antibiotics, broth microdilution, ref Abreu et al. [44]; cited from earlier work.
Data set [6] has as its system S. aureus SA1199B. Particulars: antibiotics, ref Abreu et al. [44]; cited from earlier work.

With `c1ccc2[nH]cnc2c1` [Benzimidazole], the “CHI0 pH 2.6” value in [1] was 6.300.

In the case of `CCCC(=O)c1ccccc1` [Butyrophenone], the “CHI0 pH 2.6” value in data set [1] was 87.30.

For `Cn1c(=O)c2c(ncn2C)n(C)c1=O` [Caffeine], in [1], the “CHI0 pH 2.6” value is recorded as 23.41.

Consider `NC(=O)N1c2ccccc2C=Cc2ccccc21` [Carbamazepine], for which, in data set [1], the “CHI0 pH 2.6” value is given as 60.42.

Turning to `COc1cc2c(c(OC)c1OC)-c1ccc(OC)c(=O)cc1[C@@H](NC(C)=O)CC2` [Colchicine], in data set [1], the “CHI0 pH 2.6” value is recorded as 43.90.

Broadly, the MBC is the smallest concentration meeting the test's criterion for killing. Broadly, the MIC is the lowest concentration that inhibits growth of the organism. Turning to `CCCCCCCCCCCCCC[N+](CC)(CC)CC.[Br-]` [Compound 7e, N,N,N-Triethyltetradecan-1-aminium bromide], the minimal bactericidal concentration (MBC) amounted to 32 µg/mL with S. aureus SA1199B [2]; 16 µg/mL in the data set on S. aureus CECT 976 [4] (plated on PCA, read-out: MBC); 32 µg/mL in the data set with S. aureus XU212; 8 µg/mL in the data set on S. aureus RN4220. In addition, the MIC against S. aureus SA1199B [2] came out at 16 µg/mL; in the data set on S. aureus CECT 976 [4] (24 h, 37 °C, read-out: MIC), 2 µg/mL; against S. aureus XU212, 32 µg/mL; with S. aureus RN4220, 4 µg/mL. The “NR uptake (lysosomal activity), % of control” value (shortened to “NR uptake … % of control”) in the data set on HepG2 cells (2 µg/mL) is given as 86.24 ± 1.502% (****); in the data set with HepG2 cells (16 µg/mL), 18.51 ± 2.592% (****); with HepG2 cells (32 µg/mL) it was 16.59 ± 4.378% (****). Besides, the “concentration inducing reductions in S. aureus log CFU/mL > 5” value with S. aureus CECT 976 [3] stood at 3.4 μg/mL.

For `CCCCCCC(=O)c1ccccc1` [Heptanophenone], in data set [1], the “CHI0 pH 2.6” value is reported as 112.1.

Consider `c1ccc2[nH]ccc2c1` [Indole], for which the “CHI0 pH 2.6” value in data set [1] is 72.10.

In the case of `CC(=O)Nc1ccc(O)cc1` [Paracetamol], in data set [1], the “CHI0 pH 2.6” value was 18.77.

As for `CCC(=O)c1ccccc1` [Propiophenone], the “CHI0 pH 2.6” value in data set [1] is reported as 77.40.

`Cn1c(=O)c2[nH]cnc2n(C)c1=O` [Theophylline]: in data set [1], the “CHI0 pH 2.6” value is on record as 17.90.

As for `CCCCC(=O)c1ccccc1` [Valerophenone], the “CHI0 pH 2.6” value in data set [1] is 96.40.

Regarding `CC1(C)S[C@@H]2[C@H](NC(=O)[C@H](N)c3ccccc3)C(=O)N2[C@H]1C(=O)O` [[AMP], ampicillin], the MIC in the data set on S. aureus CECT 976 [5] is reported as 1.5 µg/mL (≈ 4.29 µM).

As to `O=C(O)c1cn(C2CC2)c2cc(N3CCNCC3)c(F)cc2c1=O` [[CIP], ciprofloxacin, reference compound], the minimum inhibitory concentration (MIC) in the data set on S. aureus SA1199B [6] was 128 µg/mL (≈ 386 µM); in the data set with S. aureus CECT 976 [5], 1 µg/mL (≈ 3.02 µM). Besides, the figures for the “NR uptake … % of control” value with HepG2 cells (2 µg/mL), in the data set with HepG2 cells (16 µg/mL) and in the data set on HepG2 cells (32 µg/mL) were 106.7 ± 11.16% (ns), 96.82 ± 5.237% (ns) and 92.35 ± 6.807% (ns), respectively.

On to `CC[C@H]1OC(=O)[C@H](C)[C@@H](O[C@H]2C[C@@](C)(OC)[C@@H](O)[C@H](C)O2)[C@H](C)[C@@H](O[C@@H]2O[C@H](C)C[C@H](N(C)C)[C@H]2O)[C@](C)(O)C[C@@H](C)C(=O)[C@H](C)[C@@H](O)[C@]1(C)O` [[ERY], erythromycin, reference compound], for which the results for the “NR uptake … % of control” value with HepG2 cells (2 µg/mL), in the data set with HepG2 cells (16 µg/mL) and in the data set with HepG2 cells (32 µg/mL) were 108.4 ± 4.998% (ns), 107.1 ± 7.642% (ns) and 110.2 ± 9.546% (ns), respectively. Also, the MIC in the data set with S. aureus CECT 976 [5] is recorded as 0.24 µg/mL (≈ 0.327 µM).

Take `Cc1onc(-c2ccccc2)c1C(=O)N[C@@H]1C(=O)N2[C@@H]1SC(C)(C)[C@@H]2C(=O)O` [[OXA], oxacillin]: in the data set on S. aureus CECT 976 [5], the MIC is 0.48 µg/mL (≈ 1.2 µM).

Regarding `CN(C)[C@@H]1C(O)=C(C(N)=O)C(=O)[C@@]2(O)C(O)=C3C(=O)c4c(O)cccc4[C@@](C)(O)[C@H]3C[C@@H]12` [[TET], tetracycline], the MIC with S. aureus CECT 976 [5] is on record as 0.96 µg/mL (≈ 2.16 µM).
